Assay [1] has as its target B-Raf (V600E) (SEQ. ID NO: 4) kinase (Homo sapiens (Human), UniProt P15056, V600E). As to the kind of experiment: Biochemical Assay for B-Raf (V600E) (1). The note with it: Table J, BRAF V600E, assay version (1); read-out: BRAF VE (1) IC50. An outline of the steps:
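Serially diluted compounds tested against 0.03 nM enzyme with 30.1 nM MEK substrate and 1 mM ATP (Tris pH 7.5, 15 mM MgCl2), ATP use coupled to NADH loss via PK/LDH. A340 monitored continuously 6 h, 30 °C; IC50 fitted (four-parameter) from the 3–4 h rate versus no-compound and known-inhibitor controls.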

The test system of assay [2] is A375 cells. The assay can be described thus: A375 Cell Proliferation Assay (1). Conditions: Homo sapiens, A-375. It is filed as cell-based. An outline of the steps: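 Resazurin fluorescence (excitation 540 nm, emission 600 nm, after a further 5-6 h) gave IC50s from triplicate compound dilution series.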
Assay [3] relates to Miapaca-2 cells. The assay can be described thus: MiaPaca-2 Cell Proliferation Assay (1). It is filed as cell-based. The note with it: Homo sapiens, MIA PaCa-2, single agent, read-out: MiaPaca2 (1) IC50. The protocol: MiaPaca-2 Cell Proliferation Assay (1)
Miapaca-2 cells (catalog #CRL-1420) are obtained from the American Type Culture Collect (ATTC, Manassas, VA). Briefly, cells were grown in DMEM supplemented with 10% characterized fetal bovine serum (Invitrogen, Carlsbad, CA), 2.5% New Zealand sourced horse serum and 1% Penicillin/Streptomycin/L-Glutamine at 37° C., 5% CO2, and 95% humidity. Cells are expanded until reaching 70-95% confluency at which point they are sub-cultured or harvested for assay use. A serial dilution of test compound is dispensed into a 96-well black clear bottom plate in triplicate. Three thousand cells are added per well in 200 μL complete growth medium in the 96-well plate. Plates are incubated for 67-72 h at 37° C., 5% CO2, and 95% humidity. At the end of the incubation, 40 μL of a 440 μM solution of resazurin (Sigma, St. Louis, MO) in PBS is added to each well of the plate and plates are incubated for an additional 5-6 h at 37° C., 5% CO2, and 95% humidity. Plates are read on a Synergy2 or equivalent reader (Biotek, Winooski VT) using an excitation of 540 nm and an emission of 600 nm. Data is analyzed using Prism software (GraphPad, San Diego, CA) to calculate IC50 values.

Assay [4] deals with WM3928 cells. The assay can be described thus: WM3928 Cell Proliferation Assay (1). It counts as cell-based. Here is the method:
WM3928 Cell Proliferation Assay (1)
WM3928 cells (#WM3928-01-0001) are obtained from Rockland Immunochemicals Inc (Gilbertsville, PA). Briefly, cells were grown in MCDB 153 medium (Sigma, #M7403, St. Louis, MO) supplemented with 20% Leibovitz's L-15 (ThermoFisher #11415-064, Waltham, MA), 2% heat inactivated fetal bovine serum (ThermoFisher, #A3840001, Waltham, MA), 5 μg/mL Insulin (Bovine Pancreas) (Sigma, #I0516, St. Louis, MO), 1.68 mM Calcium Chloride (Sigma, #C-34006, St. Louis, MO) and 1% Penicillin/Streptomycin/L-Glutamine (ThermoFisher #10378016, Waltham, MA) at 37° C., 5% CO2, and 95% humidity. Cells are expanded until reaching 70-95% confluency at which point they are subcultured or harvested for assay use. A serial dilution of test compound is dispensed into a 96-well black clear bottom plate in triplicate. Three thousand cells are added per well in 200 μL complete growth medium in the 96-well plate. Plates are incubated for 67-72 hours at 37° C., 5% CO2, and 95% humidity. At the end of the incubation, 40 μL of a 440 μM solution of resazurin (Sigma, #199303, St. Louis, MO) in PBS is added to each well of the plate and plates are incubated for an additional 6-7 hours at 37° C., 5% CO2, and 95% humidity. Plates are read on a Synergy2 or equivalent reader (Biotek, Winooski VT) using an excitation of 540 nm and an emission of 600 nm. Data is analyzed using Prism software (GraphPad, San Diego, CA) to calculate IC50 values.

Where only a bound is given, the exact number is not on record here.

What is called IC50 is the point on the concentration scale where inhibition reaches its midpoint.

B-Raf (V600E) (SEQ. ID NO: 4) kinase, sequence (P15056 416-766 V600E): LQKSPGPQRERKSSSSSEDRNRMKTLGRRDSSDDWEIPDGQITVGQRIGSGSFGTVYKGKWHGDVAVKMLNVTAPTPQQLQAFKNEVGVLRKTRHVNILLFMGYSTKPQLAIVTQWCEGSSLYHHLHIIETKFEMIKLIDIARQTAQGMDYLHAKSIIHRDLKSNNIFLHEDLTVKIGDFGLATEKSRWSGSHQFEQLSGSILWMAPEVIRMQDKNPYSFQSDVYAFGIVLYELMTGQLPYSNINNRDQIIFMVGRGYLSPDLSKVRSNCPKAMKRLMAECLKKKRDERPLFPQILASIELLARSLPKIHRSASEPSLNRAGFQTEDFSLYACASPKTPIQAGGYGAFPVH

Regarding `CC(=O)Nc1cc(-c2cc(-c3cc(NC(=O)c4ccnc(C(F)(F)F)c4)c(F)cc3C)cc(C)n2)ccn1` [Example 4], the half-inhibitory concentration (IC50) in assay [1] was at most 100 nM; in assay [2] it was 100 to 500 nM; in assay [3] it was 1000 to 10000 nM.
On to `CC(=O)Nc1cc(-c2cc(-c3cc(NC(=O)c4ccnc(C(F)(F)F)c4)ccc3C)cc(C)n2)ccn1` [Example 5], for which the concentration for half-maximal inhibition (IC50) in assay [4] is at most 100 nM; in assay [1], at most 100 nM; in assay [2] it was 100 to 500 nM; in assay [3], 1000 to 10000 nM.
Regarding `CC(=O)Nc1cc(-c2cc(-c3cc(NC(=O)c4ccnc(C(F)(F)F)c4)ccc3C)ccn2)ccn1` [Example 6], the half-maximal inhibitory concentration (IC50) in assay [1] is at most 100 nM; in assay [2] it was at most 100 nM; in assay [3], 1000 to 10000 nM.
`Cc1cc(F)c(NC(=O)c2ccnc(C(F)(F)F)c2)cc1-c1ccnc(-c2ccnc(NC(=O)CN(C)C)c2)c1` [Example 7]: the IC50 in assay [1] was at most 100 nM; in assay [2], 500 to 1000 nM; in assay [3] it was 1000 to 10000 nM.
As to `CCOc1cc(-c2cc(NC(=O)c3ccnc(C(F)(F)F)c3)ccc2C)cc(-c2ccnc(NC(C)=O)c2)n1` [Example 8], the IC50 was at most 100 nM in assay [1], at most 100 nM in assay [2] and 1000 to 10000 nM in assay [3].
Regarding `CC(=O)Nc1cc(-c2cc(-c3cc(NC(=O)c4ccnc(C(F)(F)F)c4)c(F)cc3C)cc(OC(C)C)n2)ccn1` [Example 10], the half-inhibitory concentration (IC50) in assay [4], in assay [1] and in assay [2] was at most 100 nM in each case.
Take `CC(=O)Nc1cc(-c2cc(-c3cc(NC(=O)c4ccnc(C(F)(F)F)c4)ccc3C)cc(=O)n2C)ccn1` [Example 11]: the results for the IC50 in assay [1], in assay [2] and in assay [3] were at most 100 nM, 1000 to 10000 nM and 1000 to 10000 nM, respectively.
In the case of `Cc1ncc(NC(=O)c2ccnc(C(F)(F)F)c2)cc1-c1cccc(-c2ccnc(N)c2)c1` [Example 94], the IC50 in assay [1] was at most 100 nM; in assay [2], 1000 to 10000 nM; in assay [3] it was 1000 to 10000 nM.
Consider `Cc1ncc(NC(=O)c2cccc(C(F)(F)F)c2)cc1-c1cccc(-c2ccnc(NC(=O)CC#N)c2)c1` [Example 97], for which the 50% inhibitory concentration (IC50) in assay [4] was at most 100 nM; in assay [1], at most 100 nM; in assay [2], 100 to 500 nM; in assay [3] it was 1000 to 10000 nM.
Turning to `Cc1ccc(NC(=O)c2ccnc(C(F)(F)F)c2)cc1-c1cncc(-c2ccnc(NC(=O)CC#N)c2)n1` [Example 98], the IC50 in assay [1] is at most 100 nM; in assay [2], 500 to 1000 nM; in assay [3] it was 1000 to 10000 nM.
On the same counts, the results for `COCC(=O)Nc1cc(-c2cncc(-c3cc(NC(=O)c4ccnc(C(F)(F)F)c4)ccc3C)n2)ccn1` [Example 99] are at most 100 nM, 500 to 1000 nM and 1000 to 10000 nM.
On the same counts, the results for `Cc1ccc(NC(=O)c2ccnc(C(F)(F)F)c2)cc1-c1cncc(-c2ccnc(NC(=O)CN(C)C)c2)n1` [Example 100] are at most 100 nM, 100 to 500 nM and 1000 to 10000 nM.
In the case of `Cc1ccc(NC(=O)c2ccnc(C(C)(C)C#N)c2)cc1-c1ccnc(-c2ccnc3c2CC(=O)N3)n1` [Example 101], the IC50 in assay [4] is 100 to 500 nM; in assay [1], at most 100 nM; in assay [2], 500 to 1000 nM; in assay [3], 1000 to 10000 nM.
On to `CC(=O)Nc1cc(-c2cc(-c3cc(NC(=O)c4ccnc(C(F)(F)F)c4)ccc3C)cn(CCO)c2=O)ccn1` [Example 102], for which the IC50 in assay [1] was at most 100 nM; in assay [2] it was 1000 to 10000 nM; in assay [3], 1000 to 10000 nM.
On to `CNC(=O)c1cc(-c2cccc(-c3cc(NC(=O)c4ccnc(C(F)(F)F)c4)ccc3C)c2)ncn1` [Example 106], for which the half-maximal inhibitory concentration (IC50) is at most 100 nM in assay [1], 500 to 1000 nM in assay [2] and 1000 to 10000 nM in assay [3].
As to `CC(=O)Nc1cc(-c2nccc(-c3cc(NC(=O)c4ccnc(C(F)(F)F)c4)c(F)cc3C)n2)ccn1` [Example 107], the half-maximal inhibitory concentration (IC50) in assay [1] was at most 100 nM; in assay [2], 100 to 500 nM; in assay [3], 1000 to 10000 nM.
In the case of `COc1cc(C(=O)Nc2ccc(C)c(-c3cncc(-c4ccnc(NC(C)=O)c4)n3)c2)ccc1F` [Example 120], the concentration for half-maximal inhibition (IC50) in assay [1] was at most 100 nM; in assay [2] it was 1000 to 10000 nM; in assay [3], 1000 to 10000 nM.
`CC(=O)Nc1cc(-c2cncc(-c3cc(NC(=O)c4ccc(Cl)c(C(F)(F)F)c4)ccc3C)n2)ccn1` [Example 121]: the 50% inhibitory concentration (IC50) in assay [1] is at most 100 nM; in assay [2] it was 100 to 500 nM; in assay [3], 1000 to 10000 nM.
For `CNC(=O)c1cc(-c2cc(-c3cc(NC(=O)c4cccc(C(C)(C)C#N)c4)ccc3C)ccn2)ccn1` [Example 127], in that order: at most 100 nM, at most 100 nM and 1000 to 10000 nM.
As to `COCC(=O)Nc1cc(-c2cccc(-c3cc(NC(=O)c4ccnc(C(F)(F)F)c4)cnc3C)n2)ccn1` [Example 130], the values for the concentration for half-maximal inhibition (IC50) in assay [1] and in assay [2] were at most 100 nM and 1000 to 10000 nM, respectively.
Take `Cc1ccc(NC(=O)c2ccnc(C(C)(C)C#N)c2)cc1-c1cccc(-c2ccnc3[nH]ccc23)c1` [Example 133]: the figures for the IC50 in assay [1] and in assay [2] were at most 100 nM and 1000 to 10000 nM, respectively.
As to `CNC(=O)c1cc(-c2cncc(-c3cc(NC(=O)c4cc(C(F)(F)F)ccn4)ccc3C)n2)ccn1` [Example 135], the 50% inhibitory concentration (IC50) in assay [1] is at most 100 nM; in assay [2], 500 to 1000 nM; in assay [3], 1000 to 10000 nM.
For `CNC(=O)c1cc(-c2cncc(-c3cc(NC(=O)c4cccc(C(C)(C)C#N)c4)ccc3C)n2)ccn1` [Example 136], in that order: at most 100 nM, at most 100 nM and 1000 to 10000 nM.
On the same counts, the results for `CNC(=O)c1cc(-c2cncc(-c3cc(NC(=O)c4ccnc(C5(C#N)CC5)c4)ccc3C)n2)ccn1` [Example 138] are at most 100 nM, 100 to 500 nM and 1000 to 10000 nM.
For `CNC(=O)c1cc(-c2cncc(-c3cc(NC(=O)c4ccnc(C5CC5)c4)ccc3C)n2)ccn1` [Example 139], in that order: at most 100 nM, 1000 to 10000 nM and 1000 to 10000 nM.
In the case of `Cc1ccc(NC(=O)c2ccnc(C(C)(C)C#N)c2)cc1-c1cncc(-c2ccnc(N)c2)n1` [Example 141], the figures for the IC50 in assay [1], in assay [2] and in assay [3] were at most 100 nM, 1000 to 10000 nM and 1000 to 10000 nM, respectively.
Regarding `COCC(=O)Nc1cc(-c2cncc(-c3cc(NC(=O)c4ccnc(C(C)(C)C#N)c4)ccc3C)n2)ccn1` [Example 142], the results for the IC50 in assay [1], in assay [2] and in assay [3] were at most 100 nM, at most 100 nM and 1000 to 10000 nM, respectively.
Turning to `COCCNc1cc(-c2cncc(-c3cc(NC(=O)c4ccnc(C(C)(C)C#N)c4)ccc3C)n2)ccn1` [Example 143], the half-inhibitory concentration (IC50) in assay [1] was at most 100 nM; in assay [2] it was 1000 to 10000 nM; in assay [3], 1000 to 10000 nM.
Consider `CC(=O)Nc1cc(-c2nccc(-c3cc(NC(=O)c4cc(C(F)(F)F)ccn4)ccc3C)n2)ccn1` [Example 153], for which the half-maximal inhibitory concentration (IC50) was at most 100 nM in assay [1], at most 100 nM in assay [2] and 1000 to 10000 nM in assay [3].
Turning to `CNC(=O)c1cc(-c2cc(-c3cc(NC(=O)c4ccnc(C(C)(C)C#N)c4)ccc3C)cc(C3CC3)n2)ccn1` [Example 163], the IC50 in assay [4], in assay [1] and in assay [2] was at most 100 nM each time.
For the molecule `CNC(=O)c1cc(-c2nccc(-c3cc(NC(=O)c4ccnc(C(C)(C)C#N)c4)c(F)cc3C)n2)ccn1` [Example 166], the IC50 in assay [1] was at most 100 nM; in assay [2], 100 to 500 nM; in assay [3], 1000 to 10000 nM.
For `CNc1cc(-c2cncc(-c3cc(NC(=O)c4ccnc(C(C)(C)C#N)c4)ccc3C)n2)ccn1` [Example 173], the values for the half-inhibitory concentration (IC50) in assay [1], in assay [2] and in assay [3] were at most 100 nM, 500 to 1000 nM and 1000 to 10000 nM, respectively.

The values above are taken from US12319655B2, “RAF kinase inhibitors and methods of use thereof” (Deciphera Pharmaceuticals, LLC, priority 2021, dated 2025).
